{
  "source": "paper PMC5394143",
  "about": "(Clinical Drug Investigation, 2017)",
  "key": {"[1]": {"details": "for AUC(0-inf) / Cmax / half-life / AUC(0-t): both, human, plasma; for AUC(0-inf) / Cmax / half-life: oral; for AUC(0-t): po"}, "[2]": {"test": "clinical", "details": "both, human, plasma, oral, 50 mg"}, "[3]": {"test_system": "CYP3A4", "details": "cited from earlier work"}, "[4]": {"test_system": "CYP3A4", "details": "cited from earlier work", "remark": "listed apart in the source"}, "[5]": {"test_system": "CYP3A4/5", "details": "single dose of 50 mg osilodrostat"}, "[6]": {"test_system": "CYP1A2", "details": "single dose of 50 mg osilodrostat"}, "[7]": {"details": "cited from earlier work"}, "[8]": {"target": "CYP2D6 (Homo sapiens, UniProt P10635)", "sequence (P10635 whole entry)": "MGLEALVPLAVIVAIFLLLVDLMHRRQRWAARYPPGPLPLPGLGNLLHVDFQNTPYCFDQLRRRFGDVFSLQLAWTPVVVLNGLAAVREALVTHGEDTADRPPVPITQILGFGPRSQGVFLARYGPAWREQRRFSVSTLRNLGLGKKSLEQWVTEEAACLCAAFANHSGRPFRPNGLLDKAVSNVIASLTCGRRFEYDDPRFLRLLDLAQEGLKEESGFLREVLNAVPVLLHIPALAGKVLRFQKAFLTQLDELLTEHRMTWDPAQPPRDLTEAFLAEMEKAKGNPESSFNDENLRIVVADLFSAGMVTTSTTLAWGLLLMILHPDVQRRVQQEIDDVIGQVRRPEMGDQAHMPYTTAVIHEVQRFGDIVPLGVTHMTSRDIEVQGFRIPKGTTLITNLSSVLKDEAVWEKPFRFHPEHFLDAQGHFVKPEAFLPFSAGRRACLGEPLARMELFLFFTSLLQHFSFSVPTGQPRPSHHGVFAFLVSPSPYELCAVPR", "details": "single dose of 50 mg osilodrostat"}, "[9]": {"details": "safety set, 20 subjects"}, "[10]": {"test": "clinical", "details": "both, human, plasma, po, 50 mg"}, "[11]": {"test_system": "urinary free cortisol (UFC)", "details": "2–30 mg twice daily, 10 weeks, 11/12 patients with Cushing’s disease; cited from earlier work"}, "[12]": {"test_system": "urinary free cortisol (UFC)", "details": "after 22 weeks of treatment, 15/19 patients; cited from earlier work"}, "[13]": {"details": "substrate alone, geometric mean (CV%)"}, "[14]": {"details": "C max, substrate alone, geometric mean (CV%)"}},
  "note": "Like-named read-outs stand apart in the source and are kept apart here.",
  "data": [
    {"compound": "Cn1c(=O)c2c(ncn2C)n(C)c1=O", "note": "[Caffeine, caffeine]", "values": [
      {"measurement": "AUC(0-inf)", "setting": "[1]", "result": 16200, "unit": "ng·h/mL"},
      {"measurement": "Cmax", "setting": "[1]", "result": 2500, "unit": "ng/mL"},
      {"measurement": "half-life", "setting": "[1]", "result": 5.39, "unit": "h"},
      {"measurement": "AUC(0-t)", "setting": "[1]", "result": 17200, "unit": "ng·h/mL"},
      {"measurement": "CL/F", "setting": "[1]; [13]", "result": "6.18 (44.8) L/h"},
      {"measurement": "AUC(0-inf)", "setting": "[2]", "result": 41900, "unit": "ng·h/mL"},
      {"measurement": "AUC(0-t)", "setting": "[2]", "result": 41100, "unit": "ng·h/mL"},
      {"measurement": "Cmax", "setting": "[2]", "result": 2640, "unit": "ng/mL"},
      {"measurement": "half-life", "setting": "[2]", "result": 7.39, "unit": "h"}
    ]},
    {"compound": "COc1ccc2c(c1)[C@]13CCCC[C@@H]1[C@H](C2)N(C)CC3", "note": "[Dextromethorphan, dextromethorphan]", "values": [
      {"measurement": "AUC(0-inf)", "setting": "[1]", "result": 22.8, "unit": "ng·h/mL"},
      {"measurement": "half-life", "setting": "[1]", "result": 7.63, "unit": "h"},
      {"measurement": "Cmax", "setting": "[1]; [14]", "result": 1.24, "unit": "ng/mL"},
      {"measurement": "CL/F", "setting": "[1]; [13]", "result": "1310 (193.8) L/h"}
    ]},
    {"compound": "CC(=O)N1CCN(c2ccc(OCC3COC(Cn4ccnc4)(c4ccc(Cl)cc4Cl)O3)cc2)CC1", "note": "(stereo not drawn) [Ketoconazole, ketoconazole]", "values": [
      {"measurement": "FDA inhibitor classification, CYP3A4", "setting": "[3]; based on midazolam AUC change", "result": "strong inhibitor (strong inhibitor, ≥5-fold increase in AUC)"},
      {"measurement": "increase in midazolam AUC after ketoconazole administration", "setting": "[3]", "result": "≤ 16", "unit": "fold"}
    ]},
    {"compound": "Cc1ncc2n1-c1ccc(Cl)cc1C(c1ccccc1F)=NC2", "note": "[Midazolam, midazolam]", "values": [
      {"measurement": "AUC(0-inf)", "setting": "[1]", "result": 22, "unit": "ng·h/mL"},
      {"measurement": "half-life", "setting": "[1]", "result": 4.44, "unit": "h"},
      {"measurement": "Cmax", "setting": "[1]; [14]", "result": 8.78, "unit": "ng/mL"},
      {"measurement": "CL/F", "setting": "[1]; [13]", "result": "91.0 (39.6) L/h"},
      {"measurement": "AUC(0-t)", "setting": "[2]", "result": 31.7, "unit": "ng·h/mL"},
      {"measurement": "Cmax", "setting": "[2]", "result": 12.8, "unit": "ng/mL"},
      {"measurement": "half-life", "setting": "[2]", "result": 4.81, "unit": "h"}
    ]},
    {"compound": "Clc1ccc(C(c2ccccc2Cl)C(Cl)Cl)cc1", "note": "(stereo not drawn) [Mitotane, mitotane]", "values": [
      {"measurement": "CYP3A4 induction", "setting": "[4]", "result": "strong inducer"}
    ]},
    {"compound": "COc1ccc2[nH]c([S+]([O-])Cc3ncc(C)c(OC)c3C)nc2c1", "note": "(stereo not drawn) [Omeprazole, omeprazole]", "values": [
      {"measurement": "AUC(0-inf)", "setting": "[1]", "result": 618, "unit": "ng·h/mL"},
      {"measurement": "half-life", "setting": "[1]", "result": 0.77, "unit": "h"},
      {"measurement": "AUC(0-t)", "setting": "[1]", "result": 460, "unit": "ng·h/mL"},
      {"measurement": "C max", "setting": "[1]; [13]", "result": "271 (69.7) ng/mL"},
      {"measurement": "CL/F", "setting": "[1]; [13]", "result": "32.3 (92.9) L/h"},
      {"measurement": "AUC(0-inf)", "setting": "[2]", "result": 885, "unit": "ng·h/mL"},
      {"measurement": "AUC(0-t)", "setting": "[2]", "result": 852, "unit": "ng·h/mL"},
      {"measurement": "Cmax", "setting": "[2]", "result": 420, "unit": "ng/mL"}
    ]},
    {"compound": "N#Cc1ccc([C@H]2CCc3cncn32)c(F)c1", "note": "[Osilodrostat]", "values": [
      {"measurement": "FDA inhibitor classification, CYP3A4/5", "setting": "[5]", "result": "weak inhibitor (weak inhibitor, ≥1.25- but <2-fold increase in AUC)"},
      {"measurement": "FDA inhibitor classification, CYP1A2", "setting": "[6]", "result": "moderate inhibitor (moderate inhibitor, ≥2- but <5-fold increase in AUC)"},
      {"measurement": "half-life", "setting": "[7]", "result": "3 to 5", "unit": "h"},
      {"measurement": "FDA inhibitor classification, CYP2D6", "setting": "[8]", "result": "weak inhibitor (weak inhibitor, ≥1.25- but <2-fold increase in AUC)"},
      {"measurement": "fatigue (suspected drug related)", "setting": "[9]", "result": 15, "unit": "%"},
      {"measurement": "flatulence and diarrhea (suspected drug related)", "setting": "[9]", "result": 5, "unit": "%"},
      {"measurement": "grade 3 or 4 AEs or serious AEs", "setting": "[9]", "result": "No grade 3 or 4 AEs, or serious AEs"},
      {"measurement": "subjects with AEs suspected to be drug related", "setting": "[9]", "result": 30, "unit": "%"},
      {"measurement": "AUC(0-inf)", "setting": "[10]", "result": 3430, "unit": "ng·h/mL"},
      {"measurement": "Cmax", "setting": "[10]", "result": 392, "unit": "ng/mL"},
      {"measurement": "Tmax", "setting": "[10]", "result": "~1.53", "unit": "h"},
      {"measurement": "half-life", "setting": "[10]", "result": 4.73, "unit": "h"},
      {"measurement": "patients with normalized UFC", "setting": "[11]", "result": 92, "unit": "%"},
      {"measurement": "patients with normalized UFC", "setting": "[12]", "result": 79, "unit": "%"}
    ]}
  ]
}
